The subject of test [1] is SU-DHL-4 cells. The test can be described thus: 14-day cell proliferation assay (CellTiter Glo). The test is classed as cell-based. To be noted: Homo sapiens, SU-DHL-4, 336 h; SU-DHL4 cells, 14 days. The procedure:
14-Day Cell Proliferation Assay
SU-DHL-4 cells were seeded in 96-well culture plates at a density of 2000 cells/well in RPMI-1640 medium (Sigma-Aldrich) supplemented with 10% FBS (Gibco). Compounds were initially dispensed into 96-well U-bottom plates using an Echo 550 acoustic dispenser (Labcyte Inc.), then diluted in RPMI-1640 medium and transferred onto the cells. Cells were treated with 8 compound concentrations in duplicate, ranging from 1 nM to 10 μM, in a final DMSO concentration of 0.1% and final volume of 100 μl. Cells were incubated with compound for 14 days, with medium changes at days 3, 7 and 10 carried out as follows: fresh 96-well cell culture plates were prepared containing 100 μl medium plus compound at the assay concentrations (white plates were used on day 10 to optimise luminescence measurement). Assay plates containing cells were vortexed to mix and cell density in one control well was counted using a Coulter Z2 cell counter (Beckman Coulter). The volume of medium containing 2000 cells in the control well was calculated and this volume of cells was transferred from every well of the assay plates to the corresponding well of the fresh plates containing compound. After 14 days, CellTiter Glo reagent (Promega) was added to the medium in each well of the assay plate at a ratio of 1:2, mixed on a plate shaker, then incubated at room temperature for 10 minutes. Luminescence was measured using an Envision plate reader (Perkin Elmer) and the relative luminescence at each compound concentration, compared to DMSO alone, was calculated. G150 were determined using a 4-parameter curve fit in Dotmatics (Bishops Stortford, UK).
Background: Cellular ATP, detected with luciferase, serves as a proxy for viable cell number.

The target in test [2] is Trx-6×His-BCL6 (human BCL6 BTB domain covering amino-acid sequence 5-129) (Homo sapiens (Human), UniProt P41182). The test can be described thus: HTRF in vitro assay (BCL6 / BCOR-AF633 peptide). In kind it is binding. To be noted: further generated data, 1 nM Trx-6×His-BCL6, 300 nM BCOR-AF633 peptide, 0.5 nM anti-6×His-Terbium cryptate; for IC50: read-out: HTRF pIC50 (converted). The procedure: The % inhibition at each concentration was calculated by normalising FRET ratio to the appropriate high (DMSO with all reagents) and low (DMSO without BCL6) controls.
A general note: TR-FRET usually uses a lanthanide donor and a delayed reading to cut background.

The target of test [3] is endogenous BCL6 protein (Homo sapiens (Human), UniProt P41182). The test can be described thus: Immunofluorescence-based BCL6 degradation assay. In kind it is cell-based. To be noted: 2 hours with compound. The procedure: Immunofluorescence-Based BCL6 Degradation Assay
DC50 values (compound concentration at which 50% of endogenous BCL6 protein is degraded) were determined in SUDHL-4 cells (American Type Culture Collection) in an immunofluorescence-based assay using an InCell2200 high content imaging system (GE Healthcare). […] After 20 hours cell culture at 37° C./CO2 incubator, compounds were dispensed in the cell culture plate using ECHO550 acoustic dispenser (Labcyte, Inc.), as 8 point-concentration response (ranging from 5 nM to 10 μM) in 0.67% final DMSO concentration. Cells were incubated with compound for 2 hours at 37° C./CO2 incubator followed by fixation in 4.5% formaldehyde (37% formaldehyde solution, Sigma catalogue F8775) at room temperature for 15 min. […] Blocking and cell permeabilisation were performed by incubating the fixed cells for 1 hour at room temperature in 1×TBS, 5% BSA, 1% Triton X100, followed by three washes on PW384 plate washer. Primary and secondary antibodies were prepared in 1×TBS, 1% BSA, 0.2% Triton X100. […] After incubation in each antibody, cells were washes four times in 1×TBS-0.05% tween on PW384 plate washer. Cells were finally incubated for 60 min with nuclear staining RedDot2 dye (Biotium) at 0.5× the stock concentration in 1×TBS. BCL6 expression in the absence or presence of compound was detected on InCell2200 with 20× objective and quantified on InCell Analyser 3.7.2 workstation (GE Healthcare). The % response at each concentration was calculated by normalising BCL6 expression in the presence of compound to the appropriate high (DMSO) and low (DMSO with 7 μM CCT369260) controls.

In test [4] the target is BCL6-NCOR2(SMRT) corepressor protein-protein interaction (Homo sapiens (Human), UniProt P41182). The test can be described thus: NanoBRET cell assay. In kind it is cell-based. The conditions noted are these: further generated data; transfected HEK293T cells, 6 hr; read-out: NanoBRET cell pIC50 (converted). How it is done: A cellular nano-Bioluminescence Resonance Energy Transfer (nanoBRET) assay (Promega NanoBRET Nano-Glo Detection System, catalogue number N1662) was used to detect inhibition of the BCL6-NCOR2(SMRT) corepressor protein-protein interaction. DNA encoding full length BCL6 and NCOR2 were inserted into pFC32K.NanoLuc and pFC14K.HaloTag vectors (Promega) to produce C-terminal tagged fusion proteins BCL6-nanoLuc and NCOR2-HaloTag, respectively. HEK293T cells were plated (5×10^5) in T75 tissue culture flask and bulk transfected 48 hours later with Fugene 6 (Promega cat. #E2691) reagent and 18 μg total DNA plasmids encoding BCL6-nanoLuc as donor and NCOR2-HaloTag as acceptor, at a donor:acceptor DNA ratio of 1:25. At 24 hr post-transfection, HEK293T cells were collected and stored in liquid nitrogen in 90% FBS (PAN Biotech UK) and 10% DMSO. […] Frozen transfected HEK293T cells were thawed, centrifuged and freezing medium was replaced by phenol red-free OptiMEM+4% FBS (Life Technology). […] Cells were incubated for 6 hr at 37° C./5% C02 then NanoBRET furimazine substrate (Promega) was added to give a final concentration of 10 μM. After a short centrifugation the plates were read on an Envision (Perkin Elmer) plate reader equipped with a LUM/D600 Dual mirror, Lum 450/40 nm bandpass and D605 nm longpass filters, with a 0.2 sec reading to determine the BRET ratio. The % inhibition at each test concentration was calculated by normalising the BRET ratio to the appropriate high and low controls.

We go through 13 compounds from patent US12110286B2, “Benzimidazolone derived inhibitors of BCL6” (Cancer Research Technology Limited, priority 2017, dated 2024).

Usually GI50 stands for the concentration that inhibits growth by half. Read a high GI50 as less potent growth inhibition.

SMILES strings stand for the structures.

In test [1], `Cn1c(=O)n(CCC(C)(C)O)c2cc(Nc3nc(N4CCC(F)(F)CC4)ncc3Cl)ccc21` [Example 35d, 5-((5-chloro-2-(4,4-difluoropiperidin-1-yl)pyrimidin-4-yl)amino)-3-(3-hydroxy-3-methylbutyl)-1-methyl-1,3-dihydro-2H-benzo[d]imidazol-2-one] showed a GI50 of 1130 nM. In addition, the “HTRF pIC50” value in test [2] came out at 6.48. For the same compound, in test [3], the “Degradation assay in SU-DHL4 cells (pDC50)” value (from here on “Degradation assay”) came to 6.59.

The compound `C[C@@H]1CN(c2ncc(Cl)c(Nc3ccc4c(c3)n(CCC(C)(C)O)c(=O)n4CCC(C)(C)O)n2)C[C@H](C)C1(F)F` [Example 35j, 5-((5-chloro-2-((3R,5S)-4,4-difluoro-3,5-dimethylpiperidin-1-yl)pyrimidin-4-yl)amino)-1,3-bis(3-hydroxy-3-methylbutyl)-1,3-dihydro-2H-benzo[d]imidazol-2-one] came in with a GI50 in test [1] of 760 nM. Moreover, the IC50 in test [2] is 1740 nM. Moreover, the “Degradation assay” value in test [3] was 6.43.

`Cn1c(=O)n(CCC(C)(C)O)c2cc(Nc3nc(N4CCC(F)(F)C(CO)C4)ncc3Cl)ccc21` (stereo not shown) [Example 35a, 5-((5-chloro-2-(4,4-difluoro-3-(hydroxymethyl)piperidin-1-yl)pyrimidin-4-yl)amino)-3-(3-hydroxy-3-methylbutyl)-1-methyl-1,3-dihydro-2H-benzo[d]imidazol-2-one] yielded a GI50 in test [1] of 1140 nM.

Consider `Cn1c(=O)n(CCC(C)(C)O)c2cc(Nc3cc(N4CCC(F)(F)CC4)ncc3Cl)ccc21` [Example 36a, 5-((5-chloro-2-(4,4-difluoropiperidin-1-yl)pyridin-4-yl)amino)-3-(3-hydroxy-3-methylbutyl)-1-methyl-1,3-dihydro-2H-benzo[d]imidazol-2-one], for which the IC50 in test [2] was 813 nM. In addition, the “Degradation assay” value in test [3] amounted to 6.35.

Take `Cn1c(=O)n(CCC(C)(C)O)c2cc(Nc3nc(N4CCCC(C(F)(F)F)C4)ncc3Cl)ccc21` (stereo not shown) [Example 20h]: in test [2], the “HTRF pIC50” value was 6.49. Besides, the “Degradation assay” value in test [3] came to 6.30.

`CC1CCCN(c2ncc(Cl)c(Nc3ccc4c(c3)n(CCC(C)(C)O)c(=O)n4C)n2)C1.O=CO` (stereo not shown) [Example 20g]: halving of growth in test [1] (GI50) required 750 nM. In test [2], the “HTRF pIC50” value came out at 6.07. Further, the “Degradation assay” value in test [3] was determined as 6.29.

As for `C[C@@H]1C[C@H](C)CN(c2ncc(Cl)c(Nc3ccc4c(c3)n(CCC(C)(C)O)c(=O)n4C)n2)C1` [Example 20e], the concentration for 50% growth inhibition (GI50) in test [1] was 350 nM.

In turn, `COCC1CN(c2ncc(Cl)c(Nc3ccc4c(c3)n(CCC(C)(C)O)c(=O)n4C)n2)CCC1(F)F` (stereo not shown) [Example 35b, 5-((5-chloro-2-(4,4-difluoro-3-(methoxymethyl)piperidin-1-yl)pyrimidin-4-yl)amino)-3-(3-hydroxy-3-methylbutyl)-1-methyl-1,3-dihydro-2H-benzo[d]imidazol-2-one] showed a GI50 in test [1] of 1840 nM. Also, in test [2], the “HTRF pIC50” value amounted to 6.70. For the same compound, in test [3], the “Degradation assay” value is 6.35.

In turn, `C[C@@H]1CN(c2ncc(Cl)c(Nc3ccc4c(c3)n(CCC(C)(C)O)c(=O)n4C)n2)C[C@H](C)C1(F)F` [Example 20a, 5-((5-chloro-2-((3R,5S)-4,4-difluoro-3,5-dimethylpiperidin-1-yl)pyrimidin-4-yl)amino)-3-(3-hydroxy-3-methylbutyl)-1-methyl-1,3-dihydro-2H-benzo[d]imidazol-2-one] had a GI50 in test [1] of 70 nM.

Regarding `CC1CN(c2ncc(Cl)c(Nc3ccc4c(c3)n(CCC(C)(C)O)c(=O)n4C)n2)CCC1(F)F` (stereo not shown) [Example 35c, 5-((5-chloro-2-(4,4-difluoro-3-methylpiperidin-1-yl)pyrimidin-4-yl)amino)-3-(3-hydroxy-3-methylbutyl)-1-methyl-1,3-dihydro-2H-benzo[d]imidazol-2-one], halving of growth in test [1] (GI50) required 440 nM. Further, in test [2], the “HTRF pIC50” value was determined as 6.53. The “Degradation assay” value in test [3] turned out to be 6.75.

In the case of `CC(C)(O)CCn1c(=O)n(CCC(C)(C)O)c2cc(Nc3nc(N4CC(C)(C)OC(C)(C)C4)ncc3Cl)ccc21` [Example 35k, 5-((5-chloro-2-(2,2,6,6-tetramethylmorpholino)pyrimidin-4-yl)amino)-1,3-bis(3-hydroxy-3-methylbutyl)-1,3-dihydro-2H-benzo[d]imidazol-2-one], the “HTRF pIC50” value in test [2] is 6.56. Moreover, the IC50 in test [4] is 1480 nM.

On to `CCOC(=O)c1c(C)nn(-c2ncc(Cl)c(Nc3ccc4c(c3)n(CCC(C)(C)O)c(=O)n4C)n2)c1C` [Example 15c], for which the “HTRF pIC50” value in test [2] is given as 6.22. The IC50 in test [4] is 2040 nM.

Take `C[C@@H]1C[C@H](O)CN(c2ncc(Cl)c(Nc3ccc4c(c3)n(CCC(C)(C)O)c(=O)n4C)n2)C1` [Example 35x, 5-((5-chloro-2-((3S,5R)-3-hydroxy-5-methylpiperidin-1-yl)pyrimidin-4-yl)amino)-3-(3-hydroxy-3-methylbutyl)-1-methyl-1,3-dihydro-2H-benzo[d]imidazol-2-one]: the “HTRF pIC50” value in test [2] amounted to 7.01. Besides, in test [4], the IC50 is 3160 nM.
